assay: Human HepG2 cell viability assay in 384 well format; format: toxicity, cell-based; parameters: dose 125 nL, time 70.5 hour; cytotoxicity at 70.5 h: concentration not given beside the values; conditions: HepG2 cells, read-out: Inhibition

Structure (SMILES)	cytotoxicity at 70.5 h [%]
CSc1ccccc1NC(=O)CCN1CCC(C(=O)N(C)C)CC1	2.74
OC(CN1CCCCCCC1)c1ccc(OC(F)(F)F)cc1 (stereo not given)	7.33
Cn1cc(CN2CCc3onc(COCC4CC4)c3C2)cn1	-12.8
c1ccc(-n2nnnc2CNCC2CCCN2c2cccnn2)cc1 (stereo not given)	-0.967
CCS(=O)(=O)NCC(Cc1cccc(F)c1)N1CCNC1=O (stereo not given)	6.34
CCN1C[C@@H]2[C@@H](OC)CCN(S(=O)(=O)c3cccnc3)[C@@H]2C1	-10.5
Cc1nc2c(c(NC3CC3)n1)CCN(C(=O)C(C)(C)O)CC2	2.5
O=S(=O)(NCCCn1cncn1)c1ccc2c(c1)CCCC2	-5.74
Cc1noc(C)c1CS(=O)(=O)C(C)C(=O)N(C)c1ccccc1 (stereo not given)	-111
COCCO[C@H]1CCN(Cc2cnn(C)c2)[C@H]1Cc1cccnc1	-3.42
N#Cc1ccc(CN2CCN(C(=O)C3CCC3)[C@@H]3CS(=O)(=O)C[C@@H]32)cc1	-6.79
CC(C#N)CNC(=O)Nc1ccc(-c2cc[nH]n2)cc1 (stereo not given)	-1.44
CC(C)n1cnnc1C1CCCN(S(=O)(=O)CCCF)C1 (stereo not given)	-93.6
COc1cc(OC)cc(-c2cc(N)on2)c1	-7.45
CCC(C)(CC(=O)OC)NCc1c(C)noc1C (stereo not given)	-4.55
Cc1cc(N2CCC(c3ncc[nH]3)CC2)nc(N)n1	-2.19
CCN(C(=O)COc1nc(Cc2ccc(F)cc2)no1)C1CC1	-5.41
CNC(=O)c1sc2ccccc2c1C1CCN(c2cc(C)nc(C)n2)C1 (stereo not given)	18.1
CN(C)c1ncc(C(=O)N2C[C@H]3C[C@H](Oc4ccccc4)C[C@H]3C2)cn1	-0.787
Cc1ncsc1CN1CC[C@H]2OCC[C@@]2(C(=O)N2CCCO2)C1	-2.27
CCC(C)(CC(=O)O)NC(=O)Cc1ccccc1Br (stereo not given)	-4.24
Cc1ccc(CCN2C(=O)CC[C@H]3CN(Cc4cnn(C)c4)CC[C@H]32)o1	-0.704
COC(=O)c1ccc(NCc2csc(C)n2)cc1Cl	-6.69

Structure (SMILES)	cytotoxicity at 70.5 h [%]
CC(=O)N(C)c1nc(Cn2nnnc2C(C)C)cs1	-6.77
COCc1cncc2c1CCN(C(=O)c1ccc(C)o1)C2	4.32
COCC1CCN(CCCc2cn[nH]c2)CC1	19.8
Cc1cc(NC2CCN(c3ccccc3)C2)n2ncnc2n1 (stereo not given)	-5.01
Cc1cnn(CCNCC(O)c2ccc(S(C)(=O)=O)cc2)c1 (stereo not given)	-11.8
Cn1cc(Cl)cc1C(=O)N1CCCN(Cc2nccn2C)CC1	-1.83
Cc1noc(C)c1CN1CCO[C@H]2CN(Cc3cccnc3)C[C@H]21	-4.34
CCN(CC)C(CNCc1ccc(C)o1)c1ccco1 (stereo not given)	-11.7
COc1cc(I)c(Cl)cc1C(=O)N(C)C	-20.5
CCC(CC)C(=O)N1CCOC2(CNC2)C1	6.77
CC[C@@]1(O)CCN(C(=O)c2ccsc2)C[C@H]1O	-7.08
CN(C)C1CCCN(C(=O)c2ccc3sc4c(c3c2)CCNC4=O)CC1 (stereo not given)	1.18
CCN1CCN(Cc2nc(CC(C)C)no2)CC1	19.9
CCNS(=O)(=O)c1ccc(C)c(C(=O)N(CCC#N)Cc2ccco2)c1	19.1
COc1ccc(CN2CCN(S(=O)(=O)c3cc(C(=O)O)cs3)CC2)cc1	-18.9
Cc1noc(CNC2CCCN(Cc3noc(C4CC4)n3)C2)n1 (stereo not given)	-2.29
Cc1cc(C)c2nc(C)c(C(=O)N3CCC(N4CCCC4)CC3)cc2c1	-0.523
CC(C)N(C)Cc1ncn2c1CN(CC(=O)N(C)C)CCC2	8.76
O=C(c1cccc(S(=O)(=O)NCCCc2ncc[nH]2)c1)N1CCOCC1	-9.14
COCCN1CCN(CC(O)c2ccc(OC(F)(F)F)cc2)CC1 (stereo not given)	-2.07
COCC(=O)Nc1ccc(Oc2ccsc2C(=O)O)cc1	-6.01
Cc1nc(C)n(CCCNC(=O)C(C)n2ccnc2C(C)C)n1 (stereo not given)	-5.67
COc1cccc(-n2cc(CN(C)Cc3ccnc(C(C)C)n3)cn2)c1	-6.06

Structure (SMILES)	cytotoxicity at 70.5 h [%]
COCCn1cnc2ccc(NC(=O)C3CC3)cc2c1=O	-8.53
Cc1nnc(CN(Cc2cccc(Cl)c2)C(C)C)o1	-16.1
Cc1cn(Cc2ccc(F)c(F)c2)nc1N	19.5
Cc1noc(-c2ccc(N(C)Cc3cccnc3)nc2)n1	-15.4
Cn1cc(N2CCC3(CCCN(Cc4ccc(F)cc4)C3)C2=O)cn1 (stereo not given)	-12.2
NC(=O)CCC1CCCN(c2ccc3ccc(F)cc3n2)C1 (stereo not given)	-3.15
O=C(COc1ccccc1F)NCCC(O)c1ccco1 (stereo not given)	-3.87
Cc1nnc(NC(=O)NC(C)Cn2cccn2)s1 (stereo not given)	-7.53
CC1c2ncc(Cn3cncn3)n2CCN1C(=O)[C@H]1CCCO1 (stereo not given in full)	-8.44
Cn1cncc1-c1nnc([C@H]2CCN(C3CCOCC3)C2)o1	-3.04
FC(F)(F)c1cccc(CNc2nccc(C(F)(F)F)n2)c1	-3.61
O=C(NCC1CCOC1)c1csc(-c2ccccc2)n1 (stereo not given)	-15.4
Cc1ncsc1CN1C[C@@H](OCc2ccccn2)[C@H]2OCCC[C@H]21	7.35
CCOc1ccc(Cl)cc1C(C(=O)O)N1CCCC1 (stereo not given)	-2.88
Cc1ncc2c(n1)CCCC2NC(=O)c1ccncc1 (stereo not given)	14.6
Cn1nc(C2CN(C(=O)c3ccncc3)C2)c2nccnc21	13.9
CCN1CCN(C2CCN(Cc3ccc(Cl)s3)CC2)C1=O	1.3
CCOCc1cnc2n1CCN(C(=O)Cc1ccco1)C2C (stereo not given)	-6.58
CC(=O)c1c(F)cccc1NCC(O)c1ccc(F)c(F)c1 (stereo not given)	-12.6
CSc1ncc(C(=O)N2C[C@H]3CC[C@@H]2CN(c2ncccn2)C3)cn1	24.3
COCCN(CC(F)F)c1cc(C(F)(F)F)nc2ncnn12	-7.29
Cc1cc(=O)[nH]c(SCC(=O)N(C)CC2Cc3ccccc3CN2C)n1 (stereo not given)	-6.08
Cc1ocnc1C(=O)N1CC[C@@H](O)[C@@H](O)[C@H](N2CCC(F)(F)CC2)C1	-3.42

Structure (SMILES)	cytotoxicity at 70.5 h [%]
Cc1cccc(C)c1OCC(=O)Nc1cccn(C)c1=O	-4.44
CO[C@@H]1CC[C@H]2[C@H]1OCCN2C(=O)C1CCOCC1	-15
COC(=O)C(c1cc(F)ccc1F)N(C)C(=O)c1ccccn1 (stereo not given)	-9.53
NC(CC1CCCCC1)c1ccccc1 (stereo not given)	5.79
COC(=O)c1cccc(C(=O)N(CCC#N)CC(C)(C)C)c1	1.22
Cc1cccc(OC2CCN(c3nccnc3C#N)CC2)n1	4.46
COC(=O)c1ccc(CN[C@@H]2COC[C@H]2Cc2cc(C)no2)cc1	-4.83
Fc1ccccc1CC1CCN(Cc2cscn2)CC1	-4.53
Cn1nc(C(=O)NCc2ccccc2C(F)(F)F)c2c1CCS(=O)(=O)C2	-5.12
O=C1C(Nc2nccn3cnnc23)CCCN1c1ccccc1Cl (stereo not given)	-2.45
Cc1ccc([C@@]2(O)CC[C@@H]3CN(S(=O)(=O)C(C)C)C[C@@H]32)cc1	2.49
CC(C)c1nc2c(n1C)CCN(Cc1cccc(C(N)=O)c1)C2	-13.9
COCCN1CCO[C@@H]2CN(Cc3ccc(C)o3)C[C@@H]2C1	1.59
O=C(NCCOc1ncc(Cl)cc1Cl)c1cccnc1	8.03
CCOc1ccc(CN(C)C2CCN(c3cc(C)nn3C)C2=O)cc1 (stereo not given)	19.7
O=C(c1ccc(-c2cccc3c2CCNC3)o1)N1CCOCC1	-6.54
Cc1nnc(NC(=O)NC2CCOc3ccccc32)s1 (stereo not given)	-9.45
O=C(NCc1cccs1)C1CCN(c2cc(-n3ccnc3)ncn2)CC1	-0.911
Cc1nc(C(C)C)sc1C(C)N(C)C(=O)c1ccc(=O)n(C)c1 (stereo not given)	1.52
c1cc(-c2cn[nH]c2)ccc1CN1CCNCC1	-3.83
CN(c1cccnn1)C1CCN(C(=O)Cc2c[nH]c3ccccc23)CC1	-4.23
COc1ccc(CCCN(C)C(=O)c2cc(Cl)c[nH]2)cc1OC	-10.5
COc1cccc(Cl)c1C(C(=O)O)N1CCC(O)(c2cccnc2)CC1 (stereo not given)	-3.34

Structure (SMILES)	cytotoxicity at 70.5 h [%]
N[C@H]1CN(C(=O)CCC(F)(F)F)C[C@@H]1c1ccccc1	-5.15
Cc1cc(=O)n2nc(Oc3ccc(C#N)cc3Cl)sc2n1	-28
O=C(Cc1ccc2c(c1)CCO2)N1CCCC1c1noc(C2CC2)n1 (stereo not given)	9.85
CN1CCC2(CC1)CN(Cc1ccc(C3CCCCO3)o1)CCCN2C (stereo not given)	-4.97
CCN(CC)S(=O)(=O)N1CCCN(CC2CCCO2)CC1 (stereo not given)	23.8
CCCNC(=O)CSCc1ccc(S(=O)(=O)N(C)C)o1	-6.98
O=C(CCn1cncn1)N1CCCC1c1noc(C2CC2)n1 (stereo not given)	-7.06
CC(SCC(=O)NC(N)=O)c1ccc(Cl)cc1 (stereo not given)	-9.52
CC(C)N1CCCC2(CCN(C(=O)CCCn3cccn3)C2)C1=O (stereo not given)	6.53
Cc1ccc(NS(=O)(=O)CC2=NC(=O)n3cccc3C2=O)cc1	-36.1
Cc1ccc(-c2nc(CNC3CCc4ncnn4C3)co2)c(C)c1 (stereo not given)	1.75
Cc1ccsc1CCNC(=O)CCC1CCCCN1C (stereo not given)	-15
C[S+]([O-])CCNCc1ccc(OCc2cscn2)cc1 (stereo not given)	1.77
Oc1ccc(Cl)cc1CNCc1ccccc1C(F)(F)F	-2.09
O=C(N1CCOCC1CO)C1(c2cccs2)CCCC1 (stereo not given)	-4.96
CCc1[nH]nc(NC(=O)c2ccc(Cl)cn2)c1C	7.84
Cn1cc(C2CCCN2C(=O)Cc2n[nH]c3ccccc23)cn1 (stereo not given)	40.1
Cc1nc(C2CCN(C(=O)CO)CC2)cc(N2CCOCC2)n1	-7.87
CCc1ccsc1C(=O)NC(C#N)CC (stereo not given)	-5.37
O=c1nc(SCc2ccc(Cl)cc2)c2c(n1CCO)CCC2	20.9
CCOc1ccc2[nH]c(=O)c(CN3CCC(n4cnnc4)CC3)cc2c1	-4.91
Cc1nn(C)c(N2CCOCC2)c1CNC1CCOc2ccccc21 (stereo not given)	-3.07
CC(C)OCCCNC(=O)CS(=O)(=O)Cc1ccc(C(C)(C)C)cc1	-5.34
